Results as given in publication PMC4742234, “Screening of Drug Metabolizing Enzymes for the Ginsenoside Compound K In Vitro: An Efficient Anti-Cancer Substance Originating from Panax Ginseng” (PLoS ONE, 2016).
“Also recorded” adds a separate entry of the source.

Columns and labels:
CYP1A2 = target: T1, CYP1A2 (Homo sapiens, UniProt P05177); assay: Inhibition of CYP1A2 (phenacetin O-deethylation) by CK in HLMs; type: in vitro ADME
T1 construct: tissue Cypex Ltd. (U.K.); host or cells: pooled human liver microsomes
T1 sequence (P05177 1-516): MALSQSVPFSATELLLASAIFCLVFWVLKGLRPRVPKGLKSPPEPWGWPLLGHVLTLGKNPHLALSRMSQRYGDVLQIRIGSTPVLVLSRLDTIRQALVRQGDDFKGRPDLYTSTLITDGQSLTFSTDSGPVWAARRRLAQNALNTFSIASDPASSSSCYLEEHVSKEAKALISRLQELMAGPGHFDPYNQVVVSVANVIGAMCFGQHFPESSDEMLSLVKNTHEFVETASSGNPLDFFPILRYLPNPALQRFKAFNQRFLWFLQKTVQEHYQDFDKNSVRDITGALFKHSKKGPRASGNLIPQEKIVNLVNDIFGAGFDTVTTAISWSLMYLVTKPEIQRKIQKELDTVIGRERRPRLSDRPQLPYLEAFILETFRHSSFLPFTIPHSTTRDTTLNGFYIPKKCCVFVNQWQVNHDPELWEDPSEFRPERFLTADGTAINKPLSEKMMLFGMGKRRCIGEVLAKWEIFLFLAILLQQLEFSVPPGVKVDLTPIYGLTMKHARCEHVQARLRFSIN
Method: (§1) The method was conducted according to our previous study with some modifications. The CYP isoform-specific probe reactions used were phenacetin O-deethylation (for CYP1A2), coumarin 7-hydroxylation (for CYP2A6), tolbutamide 4-hydroxylation (for CYP2C9), metoprolol α-hydroxylation (for CYP2D6), chlorzoxazone 6-hydroxylation (for CYP2E1),S-Mephenytoin 4-hydroxylation (for CYP2C19), and midazolam 1-hydroxylation (for CYP3A4). The kinetic study of CK was conducted with HLMs. A 0.2 mL incubation mixture that consisted of CK (as a substrate), the HLMs (0.5 mg/mL) or CYP isoforms (10 pmol), and 0.1 M sodium phosphate buffer (pH 7.4) was pre-warmed for 5 min at 37°C. The reaction was initiated by the addition of 1 mg/mL triphosphopyridine nucleotide (NADPH). All the reagents were dissolved in methanol, and the final solvent concentration in all incubations (including the controls) was 1%. The final incubations were performed in a shaking water bath (37°C) for 30 min. The reactions were stopped by adding 0.2 mL ice-cold acetonitrile, which contains irbesartan (114.9 ng/mL) as the internal standard. The samples were vortexed for 5 min. After centrifugation (12000×g for 10 min), the supernatants were transferred, and aliquots of 20 μL were injected into the HPLC-MS/MS system for analysis.
(§2) CK (10–100 μM) and a single CYP isoform-specific substrate (with a concentration similar to its corresponding Kmvalue) were used to determine the inhibitory effect of CK on specific CYP isoforms as described in detail previously. Substrates including phenacetin, coumarin, tolbutamide, metoprolol, chlorzoxazone, S-Mephenytoin, and midazolam were used at concentrations of 10, 5, 100, 7.5, 40, 100, and 5 μM, respectively. All incubation conditions were the same as mentioned above. The inhibitory effects on the CYP isoforms were investigated individually by incubating the HLMs in the absence or presence of CK. […]

CYP3A4 [1] = target: CYP3A4 (Homo sapiens, UniProt P08684); assay: Metabolic clearance rate of CK with recombinant CYP3A4 under ketoconazole; type: in vitro ADME; design: purchased Cypex Ltd. (U.K.); settings: recombinant CYP3A4, CK 50 μM, ketoconazole 1 μM
Method: The method was conducted according to our previous study with some modifications. The CYP isoform-specific probe reactions used were phenacetin O-deethylation (for CYP1A2), coumarin 7-hydroxylation (for CYP2A6), tolbutamide 4-hydroxylation (for CYP2C9), metoprolol α-hydroxylation (for CYP2D6), chlorzoxazone 6-hydroxylation (for CYP2E1),S-Mephenytoin 4-hydroxylation (for CYP2C19), and midazolam 1-hydroxylation (for CYP3A4). The kinetic study of CK was conducted with HLMs. A 0.2 mL incubation mixture that consisted of CK (as a substrate), the HLMs (0.5 mg/mL) or CYP isoforms (10 pmol), and 0.1 M sodium phosphate buffer (pH 7.4) was pre-warmed for 5 min at 37°C. The reaction was initiated by the addition of 1 mg/mL triphosphopyridine nucleotide (NADPH). […]
To screen the specific CYP isoform responsible for the CK metabolism, we determined the inhibitory effect of specific inhibitors on the metabolism of CK in the HLMs as described in detail previously. […] The inhibitory effects of the above specific inhibitors on the metabolic clearance rate of CK were evaluated separately to screen the CYP isoforms responsible for the CK metabolism. The relative activity of the CYP isoforms was calculated by dividing the peak area of CK when incubated with the inhibitor by that of CK from the negative controls. […]

CYP2D6 = target: T2, CYP2D6 (Homo sapiens, UniProt P10635); assay: Inhibition of CYP2D6 (metoprolol α-hydroxylation) by CK in HLMs; type: in vitro ADME
T2 construct: tissue Cypex Ltd. (U.K.); host or cells: pooled human liver microsomes
Method: as §1, §2

CYP3A4 [2] = test system: CYP3A4; design: method as in Hao et al.(2008); settings: baculosomes, ref Hao et al.(2008); cited from earlier work
[3] = classified by IC50 according to Kong et al

T2 sequence (P10635 whole entry): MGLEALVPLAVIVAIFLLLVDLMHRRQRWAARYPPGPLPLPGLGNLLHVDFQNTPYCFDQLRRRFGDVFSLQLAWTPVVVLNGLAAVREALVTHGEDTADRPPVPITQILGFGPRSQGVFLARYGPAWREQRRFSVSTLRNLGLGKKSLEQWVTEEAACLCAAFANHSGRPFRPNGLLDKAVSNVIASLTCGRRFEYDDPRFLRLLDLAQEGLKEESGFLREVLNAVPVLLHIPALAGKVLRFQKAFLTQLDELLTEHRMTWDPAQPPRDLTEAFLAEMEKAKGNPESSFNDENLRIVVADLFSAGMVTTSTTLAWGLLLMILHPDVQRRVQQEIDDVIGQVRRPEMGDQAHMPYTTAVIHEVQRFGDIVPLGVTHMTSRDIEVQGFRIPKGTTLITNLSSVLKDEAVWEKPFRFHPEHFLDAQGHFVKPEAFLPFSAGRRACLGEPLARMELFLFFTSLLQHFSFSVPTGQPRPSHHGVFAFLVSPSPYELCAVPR
Sequence of CYP3A4 (Homo sapiens, UniProt P08684) (P08684 whole entry, canonical isoform): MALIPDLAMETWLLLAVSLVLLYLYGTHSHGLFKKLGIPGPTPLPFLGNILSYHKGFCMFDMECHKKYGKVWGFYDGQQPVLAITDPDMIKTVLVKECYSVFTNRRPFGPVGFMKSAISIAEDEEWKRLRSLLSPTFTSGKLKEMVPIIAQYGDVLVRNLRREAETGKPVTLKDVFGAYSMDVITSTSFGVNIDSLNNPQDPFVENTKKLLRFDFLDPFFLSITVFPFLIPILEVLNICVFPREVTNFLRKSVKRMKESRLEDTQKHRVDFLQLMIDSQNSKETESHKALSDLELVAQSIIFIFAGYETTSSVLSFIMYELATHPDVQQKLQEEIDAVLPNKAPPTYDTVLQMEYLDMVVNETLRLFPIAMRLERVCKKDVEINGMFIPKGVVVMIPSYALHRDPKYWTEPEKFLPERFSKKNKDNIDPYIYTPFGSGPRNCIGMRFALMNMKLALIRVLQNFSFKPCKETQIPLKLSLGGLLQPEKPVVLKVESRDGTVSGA

CC(C)=CCC[C@](C)(OC1O[C@H](CO)[C@@H](O)[C@H](O)[C@H]1O)[C@H]1CC[C@]2(C)[C@@H]1[C@H](O)C[C@@H]1[C@@]3(C)CC[C@H](O)C(C)(C)[C@@H]3CC[C@]12C (stereo partly drawn) [CK, 20-O-β-(D-glucopyranosyl)-20(S)-protopanaxadiol]
inhibitory effect on the activity of CYP1A2 (CYP1A2; HLMs, CK 10–100 μM): minimal; also recorded: negligible | IC50 (CYP1A2; HLMs, phenacetin 10 μM, CK 10–100 μM): > 100 µM | inhibitor potency class for CYP1A2 (CYP1A2; [3]): weak (weak, if IC50≥100 μg/mL or ≥50 μM) | MCR of CK, of that of the control (CYP3A4 [1]): 13.2% | inhibitory effect on the activity of CYP2D6 (CYP2D6; HLMs, CK 10–100 μM): minimal; also recorded: negligible | IC50 (CYP2D6; HLMs, metoprolol 7.5 μM, CK 10–100 μM): > 100 µM | inhibitor potency class for CYP2D6 (CYP2D6; [3]): weak (weak, if IC50≥100 μg/mL or ≥50 μM) | CYP3A4 inhibition (CYP3A4 [2]): moderate
